What was measured:
ROMK = ROMK (Homo sapiens (Human), UniProt P48048); assay: Thallium Flux Assay; type: cell-based
Method: A Thallium Flux Assay was performed on the compounds of the Examples. This assay has been described previously; see, e.g., PCT Published Application WO 2013/062900.

Kir1.1 (ROMK1) = Kir1.1 (ROMK1) (Homo sapiens (Human), UniProt P48048); assay: Electrophysiology Assay (whole cell voltage clamp, IonWorks Quattro); type: cell-based; settings: Chinese hamster ovary cells stably expressing Kir1.1; fractional block at voltage step to 0 mV; 6 min compound incubation
Chain of Kir1.1 (ROMK1) (P48048 whole entry): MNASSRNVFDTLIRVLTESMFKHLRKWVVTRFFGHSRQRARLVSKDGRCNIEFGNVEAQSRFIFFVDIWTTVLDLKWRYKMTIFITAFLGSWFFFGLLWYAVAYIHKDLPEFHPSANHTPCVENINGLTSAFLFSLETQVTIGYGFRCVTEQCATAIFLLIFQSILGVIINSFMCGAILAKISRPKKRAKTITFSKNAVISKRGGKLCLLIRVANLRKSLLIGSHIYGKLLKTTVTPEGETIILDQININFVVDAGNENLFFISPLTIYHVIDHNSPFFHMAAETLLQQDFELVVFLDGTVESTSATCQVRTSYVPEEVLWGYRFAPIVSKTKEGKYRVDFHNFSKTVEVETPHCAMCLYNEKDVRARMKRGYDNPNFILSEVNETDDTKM
Method: Blocking of Kir1.1 (ROMK1) currents was examined by whole cell voltage clamp (Hamill et. al. Pfluegers Archives 391:85-100 (1981)) using the IonWorks Quattro automated electrophysiology platform (Molecular Devices, Sunnyvale, Calif.). Chinese hamster ovary cells stably expressing Kir1.1 channels were maintained in T-75 flasks in cell culture media in a humidified 10% CO2 incubator at 37° C. Prior to an experiment, Kir1.1 expression was induced by overnight incubation with 1 mM sodium butyrate. On the day of the experiment, cells were dissociated with 2.5 mL of Versene (Invitrogen 15040-066), a non-enzymatic cell dissociation reagent, for approximately 6 min at 37° C. and suspended in 10 mL of bath solution containing (in mM): 150 NaCl, 10 KCl, 2.7 CaCl2, 0.5 MgCl2, and 5 HEPES, at pH 7.4. After centrifugation, the cell pellet was resuspended in approximately 4.0 mL of bath solution and placed in the IonWorks instrument. The intracellular solution consisted of (in mM): 80 K gluconate, 40 KCl, 20 KF, 3.2 MgCl2, 3 EGTA, and 5 Hepes, at pH 7.4. Electrical access to the cytoplasm was achieved by perforation in 0.13 mg/mL amphotericin B for 4 min. Amphotericin B (Sigma A-4888) was prepared as a 40 mg/mL solution in DMSO.
Voltage protocols and current recordings were performed using the IonWorks HT software/hardware system. Currents were sampled at 1 kHz. There was no correction for liquid junction potentials. The test pulse, consisting of a 100 ms (millisecond) step to 0 mV (millivolts) from a holding potential of −70 mV, followed by a 100 ms voltage ramp from −70 mV to +70 mV, was applied before and after a 6 min compound incubation period. Test compounds were prepared by diluting DMSO stock solutions into the bath solution at 3× the final concentration and placed in the instrument in 96-well polypropylene plates. Current amplitudes were measured using the IonWorks software. To assess compound potency, the fractional block during the voltage step to 0 mV was calculated in Microsoft Excel (Microsoft, Redmond, Calif.), and dose-response curves were fitted with Igor Pro 4.0 (WaveMetrics, Lake Oswego, Oreg.).

Chain of ROMK (P48048 whole entry): as above

| Structure (SMILES) | IC50 (ROMK) | IC50 (Kir1.1 (ROMK1)) |
| --- | --- | --- |
| CC1=C(N2CCNC3(CCN(CC(O)c4ccc(-n5cnnn5)nc4C)CC3)C2=O)COC1=O (single isomer, unassigned) [Example 2A, 9-(2-hydroxy-2-(2-methyl-6-(1H-tetrazol-1-yl)pyridin-3-yl)ethyl)-4-(4-methyl-5-oxo-2,5-dihydrofuran-3-yl)-1,4,9-triazaspiro[5.5]undecan-5-one] | 36.5 nM | 26 nM |
| CC1=C(N2CCOC3(CCN(C[C@@H](O)c4ccc(-n5cnnn5)nc4)CC3)C2=O)COC1=O [Example 6B, (S)-9-(2-(6-(1H-tetrazol-1-yl)pyridin-3-yl)-2-hydroxyethyl)-4-(4-methyl-5-oxo-2,5-dihydrofuran-3-yl)-1-oxa-4,9-diazaspiro[5.5]undecan-5-one] | 12.1 nM | 3.8 nM |
| CC1=C(N2CCOC3(CCN(C[C@H](O)c4ccc(-n5cnnn5)nc4)CC3)C2=O)COC1=O [Example 6A, (R)-9-(2-(6-(1H-tetrazol-1-yl)pyridin-3-yl)-2-hydroxyethyl)-4-(4-methyl-5-oxo-2,5-dihydrofuran-3-yl)-1-oxa-4,9-diazaspiro[5.5]undecan-5-one] | 14.6 nM | 6.6 nM |
| O=C1C=C(N2CCOC3(CCN(C[C@@H](O)c4ccc(-n5cnnn5)nc4)CC3)C2)CO1 [Example 19B, (S)-4-(9-(2-(6-(1H-tetrazol-1-yl)pyridin-3-yl)-2-hydroxyethyl)-1-oxa-4,9-diazaspiro[5.5]undecan-4-yl)furan-2(5H)-one] | 263 nM | 100 nM |
| Cc1c([C@@H](O)CN2CCC3(CC2)CN(C2=CC(=O)OC2)C(=O)O3)ccc2c1COC2=O [Example 16, (R)-8-(2-hydroxy-2-(4-methyl-1-oxo-1,3-dihydroisobenzofuran-5-yl)ethyl)-3-(5-oxo-2,5-dihydrofuran-3-yl)-1-oxa-3,8-diazaspiro[4.5]decan-2-one] | 315 nM | 320 nM |
| CC1=C(N2CCOC3(CCN(CC(O)c4cnc(-n5cnnn5)nc4)CC3)C2=O)COC1=O (single isomer, unassigned) [Example 46A, 9-(2-(2-(1H-tetrazol-1-yl)pyrimidin-5-yl)-2-hydroxyethyl)-4-(4-methyl-5-oxo-2,5-dihydrofuran-3-yl)-1-oxa-4,9-diazaspiro[5.5]undecan-5-one] | 56 nM | 51 nM |
| CC1=C(N2CCN(C)C3(CCN(C[C@H](O)c4ccc5c(c4C)COC5=O)CC3)C2=O)COC1=O [Example 34, (R)-9-(2-hydroxy-2-(4-methyl-1-oxo-1,3-dihydroisobenzofuran-5-yl)ethyl)-1-methyl-4-(4-methyl-5-oxo-2,5-dihydrofuran-3-yl)-1,4,9-triazaspiro[5.5]undecan-5-one] | 42.3 nM | 27 nM |
| CC1=C(N2CCNC3(CCN(C[C@H](O)c4ccc(-n5cnnn5)nc4)CC3)C2=O)COC1=O [Example 4A, (R)-9-(2-(6-(1H-tetrazol-1-yl)pyridin-3-yl)-2-hydroxyethyl)-4-(4-methyl-5-oxo-2,5-dihydrofuran-3-yl)-1,4,9-triazaspiro[5.5]undecan-5-one] | 38.2 nM | 46 nM |
| Cc1c([C@@H](O)CN2C3CCC2CC2(C3)OCCN(C3=CC(=O)OC3)C2=O)ccc2c1COC2=O (stereo partly drawn) [Example 36, (1R,2′R,5S)-8-((R)-2-hydroxy-2-(4-methyl-1-oxo-1,3-dihydroisobenzofuran-5-yl)ethyl)-4′-(5-oxo-2,5-dihydrofuran-3-yl)-8-azaspiro[bicyclo[3.2.1]octane-3,2′-morpholin]-3′-one] | 29.3 nM | 13.4 nM |
| CC1=C(N2CCOC3(CCN(C[C@@H](F)c4ccc5c(c4C)COC5=O)CC3)C2=O)COC1=O [Example 58, (S)-9-(2-fluoro-2-(4-methyl-1-oxo-1,3-dihydroisobenzofuran-5-yl)ethyl)-4-(4-methyl-5-oxo-2,5-dihydrofuran-3-yl)-1-oxa-4,9-diazaspiro[5.5]undecan-5-one] | 306 nM | – |
| CC1=C(N2CCOC3(CCN(CC(O)c4cnc(-n5cnnn5)cn4)CC3)C2)COC1=O (single isomer, unassigned) [Example 48A, 4-(9-(2-(5-(1H-tetrazol-1-yl)pyrazin-2-yl)-2-hydroxyethyl)-1-oxa-4,9-diazaspiro[5.5]undecan-4-yl)-3-methylfuran-2(5H)-one] | 462 nM | – |
| CC1=C(N2CCOC3(CCN(CC(O)c4ccc(-n5cnnn5)cn4)CC3)C2=O)COC1=O (single isomer, unassigned) [Example 43, 9-(2-(5-(1H-tetrazol-1-yl)pyridin-2-yl)-2-hydroxyethyl)-4-(4-methyl-5-oxo-2,5-dihydrofuran-3-yl)-1-oxa-4,9-diazaspiro[5.5]undecan-5-one] | 37.2 nM | – |
| CC1=C(N2CCOC3(CCN(C[C@@H](O)c4ccc5c(c4C)COC5=O)CC3)C2=O)COC1=O [Example 8B, (S)-9-(2-hydroxy-2-(4-methyl-1-oxo-1,3-dihydroisobenzofuran-5-yl)ethyl)-4-(4-methyl-5-oxo-2,5-dihydrofuran-3-yl)-1-oxa-4,9-diazaspiro[5.5]undecan-5-one] | 89.9 nM | – |
| CC1=C(N2CC(F)(F)OC3(CCN(C[C@H](O)c4ccc(-n5cnnn5)nc4)CC3)C2)COC1=O [Example 7A, (R)-4-(9-(2-(6-(1H-tetrazol-1-yl)pyridin-3-yl)-2-hydroxyethyl)-2,2-difluoro-1-oxa-4,9-diazaspiro[5.5]undecan-4-yl)-3-methylfuran-2(5H)-one] | 416 nM | – |
| CC1=C(N2CCOC3(CCCN(C[C@@H](O)c4ccc(-n5cnnn5)nc4)CC3)C2=O)COC1=O (stereo partly drawn) [Example 15, 9-((S)-2-(6-(1H-tetrazol-1-yl)pyridin-3-yl)-2-hydroxyethyl)-4-(4-methyl-5-oxo-2,5-dihydrofuran-3-yl)-1-oxa-4,9-diazaspiro[5.6]dodecan-5-one] | 280 nM | – |
| CC1=C(N2CCOC3(CC4CCC(C3)N4C[C@H](O)c3ccc(-n4cnnn4)nc3)C2=O)COC1=O (stereo partly drawn) [Example 47, (1R,2′R,5S)-8-((R)-2-(6-(1H-tetrazol-1-yl)pyridin-3-yl)-2-hydroxyethyl)-4′-(4-methyl-5-oxo-2,5-dihydrofuran-3-yl)-8-azaspiro[bicyclo[3.2.1]octane-3,2′-morpholin]-3′-one] | 9.57 nM | – |
| CC1=C(N2CCNC3(CCN(CC(O)c4cnc(-n5cnnn5)cn4)CC3)C2=O)COC1=O (single isomer, unassigned) [Example 3A, 9-(2-(5-(1H-tetrazol-1-yl)pyrazin-2-yl)-2-hydroxyethyl)-4-(4-methyl-5-oxo-2,5-dihydrofuran-3-yl)-1,4,9-triazaspiro[5.5]undecan-5-one] | 114 nM | – |
| CC1=C(N2CCOC3(CCN(CC(O)c4cnc(-n5cnnn5)cn4)CC3)C2)COC1=O (single isomer, unassigned) [Example 48B, 4-(9-(2-(5-(1H-tetrazol-1-yl)pyrazin-2-yl)-2-hydroxyethyl)-1-oxa-4,9-diazaspiro[5.5]undecan-4-yl)-3-methylfuran-2(5H)-one] | 245 nM | – |
| CC1=C(N2CC3(CCN(CC(O)c4ccc(-n5cnnn5)nc4C)CC3)OCC2=O)COC1=O (single isomer, unassigned) [Example 60, 9-(2-hydroxy-2-(2-methyl-6-(1H-tetrazol-1-yl)pyridin-3-yl)ethyl)-4-(4-methyl-5-oxo-2,5-dihydrofuran-3-yl)-1-oxa-4,9-diazaspiro[5.5]undecan-3-one] | 48.4 nM | – |
| CC1=C(N2CCOC3(CC4CCC(C3)N4CC(O)c3cnc(-n4cnnn4)cn3)C2=O)COC1=O (single isomer, unassigned) [Example 44] | 478 nM | – |
| CC1=C(N2CCOC3(CCN(C[C@@H](F)c4ccc(-n5cnnn5)nc4)CC3)C2=O)COC1=O [Example 56, (S)-9-(2-(6-(1H-tetrazol-1-yl)pyridin-3-yl)-2-fluoroethyl)-4-(4-methyl-5-oxo-2,5-dihydrofuran-3-yl)-1-oxa-4,9-diazaspiro[5.5]undecan-5-one] | 49 nM | – |
| O=C1C=C(N2CCOC3(CC4CCC(C3)N4CCc3ccc(-n4cnnn4)nn3)C2=O)CO1 [Example 54, (1R,2′r,5S)-8-(2-(6-(1H-tetrazol-1-yl)pyridazin-3-yl)ethyl)-4′-(5-oxo-2,5-dihydrofuran-3-yl)-8-azaspiro[bicyclo[3.2.1]octane-3,2′-morpholin]-3′-one] | 3.76 nM | – |
| Cc1c([C@@H](O)CN2CCC3(CC2)OCC(C)N(C2=CC(=O)OC2)C3=O)ccc2c1COC2=O (single isomer, unassigned) [Example 14] | 264 nM | – |
| CC1=C(N2C(=O)C3(CCN(C[C@H](O)c4ccc(-n5cnnn5)nc4)CC3)OCC2C)COC1=O (single isomer, unassigned) [Example 10B] | 307 nM | – |
